Assay in all cases: Cell death protection, LDH release after RSL3
Type in all cases: cell-based
On the technique in general: Release of lactate dehydrogenase indicates damage to the cell membrane.

One assay relates to HT-22. The conditions noted are these: Mus musculus, HT-22, RSL3 0.3 μM, 24 hours. How it is done: (§1) To confirm the protective effect on cardiac cells, adrenal medulla cells, renal fibroblasts, retinal epithelial cells, lung epithelial cells, renal proximal tubule epithelial cells, hippocampal neurons, and fibroblasts, 4×10^3 to 1.2×10^4 cells of each cell type were dispensed into 96-well plates and cultured for 18 to 24 hours. Each well was treated with the example compound, which was diluted so that the final concentration became 0.001, 0.003, 0.01, 0.03, 0.1, 0.3, 1, 3, and 10 μM, and culture was performed for 15 to 20 minutes. […] To confirm the cell protecting effect of the example compounds, a cytotoxicity LDH assay kit [Dojindo; CK12] was used to measure the level of extracellular secretion of lactate dehydrogenase (LDH). Briefly, at the time point when the 24-hour treatment of each cell type with RSL3 ended, 70 μL of each supernatant from cell culture medium was taken and transferred to a new 96-well plate. After adding 70 μL/well (the same amount as the sample) of the assay buffer included in the kit, the resulting mixture was wrapped with foil and allowed to react at room temperature for 15 to 20 minutes. After observing the color change of the sample, 35 μL/well of a stop solution was added, and the absorbance value at 490 nm was measured using an iD3 spectrophotometer to calculate the EC50 value.
(§2) Table 3. Effect of protecting cardiac cells, adrenal medulla cells, renal fibroblasts, retinal epithelial cells, lung epithelial cells, renal proximal tubule epithelial cells, hippocampal neurons, and fibroblasts against cell death induced by RSL3.

The subject of a further assay is NIH/3T3. The following applies: Mus musculus, NIH3T3, NIH/3T3, RSL3 3 μM, 24 hours. On the procedure: as §1, §2
In a further assay the test system is H9C2. The conditions noted are these: Rattus norvegicus, H9C2, RSL3 0.5 μM, 24 hours. On the procedure:
as §1, §2

Another assay relates to NRK-49F. The conditions noted are these: Rattus norvegicus, RSL3 3 μM, 24 hours. On the procedure:
as §1, §2

The next assay relates to ARPE-19. The following applies: Homo sapiens, ARPE-19, RSL3 0.3 μM, 24 hours. How it is done:
as §1, §2

For another assay, the system named is MLE-12. The conditions noted are these: MLE12, MLE-12, RSL3 1 μM, 24 hours. On the procedure: as §1, §2
A further assay deals with HK-2. The following applies: Homo sapiens, HK-2, RSL3 0.3 μM, 24 hours. On the procedure:
as §1, §2

The test system of another assay is PC-12. The conditions noted are these: Rattus norvegicus, PC-12, RSL3 0.3 μM, 24 hours. On the procedure:
as §1, §2

The source of these data is US20240269145A1, “USE OF INDOLE COMPOUND AS INHIBITORS OF FERROPTOSIS” (MITOIMMUNE THERAPEUTICS INC., priority 2023, published 2024).

The term EC50 denotes the concentration at which the effect is half-maximal. Read a low EC50 as an effect from little substance. Consider `CCOC(=O)c1cc(NC2CCCC2)c2[nH]c(-c3ccccc3)cc2c1` [Example 2, ethyl 7-(cyclopentylamino)-2-phenyl-1H-indole-5-carboxylate], for which the EC50 in the assay on HT-22, in the assay on NIH/3T3, with H9C2, in the assay on NRK-49F, in the assay with ARPE-19 and with MLE-12 was no more than 0.03 µM each time. The EC50 with HK-2 and in the assay with PC-12 was no more than 0.03 µM in each case.
With `O=S1(=O)CCN(Cc2cc(NCC3CCOCC3)c3[nH]c(-c4ccccc4)cc3c2)CC1` [Example 6, 4-((2-phenyl-7-(((tetrahydro-2H-pyran-4-yl)methyl)amino)-1H-indol-5-yl)methyl)thiomorpholine 1,1-dioxide], the EC50 in the assay with HT-22 was 0.03 to 0.1 µM; in the assay on NIH/3T3, 0.03 to 0.1 µM; in the assay on H9C2, no more than 0.03 µM; in the assay on NRK-49F it was no more than 0.03 µM; in the assay with ARPE-19, no more than 0.03 µM; in the assay with MLE-12, no more than 0.03 µM. Moreover, the EC50 in the assay on HK-2 was no more than 0.03 µM; in the assay with PC-12, 0.03 to 0.1 µM.
Regarding `CS(=O)(=O)N1CCC(Nc2cc(CN3CCS(=O)(=O)CC3)cc3cc(-c4ccccc4)[nH]c23)CC1` [Example 22, 4-((7-((1-(methylsulfonyl)piperidin-4-yl)amino)-2-phenyl-1H-indole-5-yl)methyl)thiomorpholine 1,1-dioxide], the EC50 in the assay on HT-22 is 0.03 to 0.1 µM; in the assay on NIH/3T3 it was 0.03 to 0.1 µM; with H9C2 it was 0.03 to 0.1 µM; in the assay on NRK-49F, 0.03 to 0.1 µM; in the assay with ARPE-19 it was no more than 0.03 µM; in the assay with MLE-12, no more than 0.03 µM. Besides, the EC50 in the assay with HK-2 and with PC-12 was 0.03 to 0.1 µM each time.
Regarding `Cc1cc(NC2CCCC2)c2[nH]c(-c3ccccc3)cc2c1` [Example 33, N-cyclopentyl-5-methyl-2-phenyl-1H-indole-7-amine], the EC50 in the assay on HT-22, in the assay on NIH/3T3, in the assay with H9C2, in the assay with NRK-49F, in the assay with ARPE-19 and with MLE-12 was no more than 0.03 µM in each case. Further, the concentration for a half-maximal effect (EC50) in the assay with HK-2 was no more than 0.03 µM; in the assay with PC-12 it was 0.03 to 0.1 µM.
